Test results published in patent US7674456B2, “Breast cancer cell lines and uses thereof” (priority 2004, dated 2010).

Tested on: tumor cells from right chest wall lesion (mammary carcinoma cells)
Assay: Ex vivo drug response testing of fresh tumor specimen (DISC, MTT and redox assays)
Type: cell-based, human
Design: key to ASSAY RESULT: Sensitive: the drug inhibits the cell growth or proliferation of the cell to a greater degree than is expected for an appropriate control; Resistant: the drug inhibits the cell growth or proliferation of the cell to a lesser degree than is expected for an appropriate control
Conditions: for ASSAY RESULT: fresh tumor cells, compared with a database of assays of similar technical characteristics; for activity in vitro (in words): summary of the table
Experimental: An unfixed portion of the tumor was further analyzed for response to several drugs. A specimen consisted of 1 piece of yellow, white, and red tissue, obtained from the right chest wall lesion. The piece was soft and sticky in texture, measured 0.8×1.4 cm, and weighed 0.47 gm. The specimen was minced to individual pieces smaller than one mm with surgical scissors and digested for 1.3 hours with collagenase-DNAse. Viable tumor cells were enriched by Ficoll-diatriozate centrifugation. Cytospin slides were prepared, air-dried, and stained with Fast Green/Hamatoxyline-eosin. On this cytology preparation obtained from mechanically-dissociated, enzyme-digested tissue, there was a collection of somewhat pleomorphic tumor cells, consistent with mammary carcinoma cells. Tumor cells were present as loose cell clusters (60% of total tumor cells) and, less commonly, as discohesive single cells (40% of total tumor cells). The tumor cells measured 22-25 microns in diameter and had N/N+C ratios of 0.6-0.8. […] Nucleoli were variably prominent. There were no cells with large clear globular areas or secretory material within the cytoplasm. There was slight cytoplasmic and nuclear molding. Approximately 40% of the enriched tumor cell fraction consisted of normal-appearing connective tissue cells and inflammatory cells.
Cells were plated for testing in 3 different assay endpoints. In the DISC assay, the entire contents of the cell culture were cytocentrifuged onto permanent microscope slides and differentially stained to allow discrimination of normal and neoplastic cells and living and dead cells. […] The MTT assay measures mitochondrial metabolism in the entire cell culture. The redox assay measures total metabolic activity in the entire cell culture, using the Alamar Blue reagent to index the oxygen reduction potential of the culture medium. Because of the very low yield of viable tumor cells, only a small drug panel could be tested. Additionally, some drugs could be tested only in a single assay system.
At the conclusion of the culture period, there was 10% spontaneous attrition in viable tumor cell numbers. Formazan signal in the MTT assay was moderate, reflective of moderate cell metabolism, and allowing for an MTT assay of good quality. Percentage of tumor cells as a percentage of total viable cells at the conclusion of the culture was approximately 85. DISC and MTT assays were in reasonably good agreement. The overall technical quality of the assays was good, marred only by the low yield of tumor cells, which severely limited the scope of testing.
Results were compared with a database of assays which had similar technical characteristics, as the technical characteristics of these assays influence the in vitro results, along with the intrinsic drug resistance of the tumor cells. By controlling for technical characteristics such as spontaneous cell loss, metabolic signal at the conclusion of the culture, and tumor cell clustering, biological correlations are improved.

Compound | ASSAY RESULT | activity in vitro (in words) | activity in vitro (in words) (listed as paclitaxel (Taxol))
N.N.O=C([O-])C1(C(=O)[O-])CCC1.[Pt+2] [Carboplatin] | Resistant | poor activity | 
O=P1(N(CCCl)CCCl)NC(OO)CCO1 (centres unmarked) [Cyclophosphamide (4HC)] | Sensitive | above-average activity | 
COc1cccc2c1C(=O)c1c(O)c3c(c(O)c1C2=O)C[C@@](O)(C(=O)CO)C[C@@H]3O[C@H]1C[C@H](N)[C@H](O)[C@H](C)O1 [Doxorubicin] | Intermediate |  | 
COc1cc([C@@H]2c3cc4c(cc3[C@@H](O[C@@H]3O[C@@H]5CO[C@@H](C)O[C@H]5[C@H](O)[C@H]3O)[C@H]3COC(=O)[C@H]23)OCO4)cc(OC)c1O [Etoposide] | Sensitive | above-average activity | 
O=c1[nH]cc(F)c(=O)[nH]1 [Fluorouracil] | Intermediate |  | 
O=C1c2c(O)ccc(O)c2C(=O)c2c(NCCNCCO)ccc(NCCNCCO)c21 [Mitoxantrone] | Intermediate |  | 
CC(=O)O[C@H]1C(=O)[C@@]2(C)[C@H]([C@H](OC(=O)c3ccccc3)[C@]3(O)C[C@H](OC(=O)[C@H](O)[C@@H](NC(=O)c4ccccc4)c4ccccc4)C(C)=C1C3(C)C)[C@]1(OC(C)=O)CO[C@@H]1C[C@@H]2O [Taxol (Paclitaxel), Paclitaxel] | Sensitive | best drug in vitro | above-average activity
CCC1=C[C@@H]2CN(C1)Cc1c([nH]c3ccccc13)[C@@](C(=O)OC)(c1cc3c(cc1OC)N(C)[C@H]1[C@@](O)(C(=O)OC)[C@H](OC(C)=O)[C@]4(CC)C=CCN5CC[C@]31[C@@H]54)C2 [Vinorelbine (Navelbine), Vinorelbine] | Intermediate |  | 
Gemcitabine + Cisplatin | Intermediate |  | 
